Measurements reported in a melting point compilation (Tetko et al.).

| Compound | melting point |
| --- | --- |
| CC(=O)Nc1ccc(Br)cc1OC(F)(F)F | 136 °C |
| NCc1cc(C(F)(F)F)ccc1N1CCOCC1 | 31 to 34 °C |
| CN(C)c1ccc(C2Nn3c(COc4ccccc4)nnc3S2)cc1 (configuration not stated) | 143 to 144 °C |
| O=C(c1ccccc1)C(c1ccccc1)(c1ccccc1)c1ccccc1 | 182 °C |
| C[C@@H](NC(=O)c1ccccc1)c1ccccc1 | 123 to 125 °C |
| CCNc1cc2oc(=O)cc(C(F)(F)F)c2cc1C | 184 °C |
| FC(F)(F)c1nc(C(F)(F)F)nc(C(F)(F)F)n1 | -24.8 °C |
| Cc1noc(-c2ccccc2C(=O)O)n1 | 152 to 153 °C |
| Cn1nc(-c2ccc(Cl)cc2)cc1N | 150 to 152 °C |
| O=c1onc2cnc3ccccc3n12 | 160 to 170 °C |
| CCc1cccc(CC)c1NC(=O)CCl | 130 °C |
| O=C(Cl)c1cccc2c1OCC2 | 55 to 61 °C |
| COc1ccc(S(N)(=O)=O)cc1 | 112 °C |
| Cc1ccc(S(=O)(=O)NC(Cc2ccccc2)C(=O)CCl)cc1 (configuration not stated) | 105 to 109 °C |
| FC(F)(F)c1cc(-n2cccc2)cc(C(F)(F)F)c1 | 43 to 45 °C |
| Cc1cnc(C)cn1 | 15 °C |
| Cn1c(=O)c(C2=NNC(=O)C2=Cc2cccc(O)c2)c(O)c2ccccc21 | 290 °C |
| CC(=O)Nc1ccc(F)cc1[N+](=O)[O-] | 70 to 73 °C |
| O=C1NC(CCO)C(=O)NC1CCO (configuration not stated) | 188 to 192 °C |
| Nc1ccc(Cl)cc1Br | 66 °C |
| N#Cc1ccccc1COc1ccccc1 | 62 to 64 °C |
| CCCCCCCCCC(=O)OC | -18 °C |
| COP(=S)(OC)Oc1ccc([N+](=O)[O-])c(Cl)c1 | 21 °C |
| CN1CCC(N(Cc2cccs2)c2ccccc2)CC1 | 95 °C |
| CCC1COC(=O)O1 (configuration not stated) | -45 °C |
| CCOC(=O)C#Cc1cccc(C#CC(=O)OCC)c1 | 56 °C |

| Compound | melting point |
| --- | --- |
| CC(=O)OC1CC[C@]2(C)[C@H]3CC[C@]4(C)C(=O)CC[C@H]4[C@@H]3C(=O)C[C@@]2(C)C1 (some centres not stated) | 153 to 157 °C |
| Cn1c(=O)c(C(N)=S)cn(-c2ccccc2)c1=O | 229 to 232 °C |
| c1cc2ccc3ccc4ccc5cccc6c(c1)c2c3c4c56 | 278 °C |
| CC(=O)Nc1cc(Cl)ccc1C(=O)O | 202 to 207 °C |
| Cc1ccc(C(=O)/C=C/c2ccc(Br)o2)o1 | 69 °C |
| Cc1noc(-c2ccc(C(=O)O)cc2)n1 | 267 to 269 °C |
| CCCCCC(=O)c1ccccc1 | 27 °C |
| Cc1nc2cc(C)c(C)cc2s1 | 84 °C |
| OCC(F)(F)C(F)(F)C(F)(F)C(F)(F)C(F)(F)C(F)(F)C(F)(F)F | 43 to 47 °C |
| O=C1CCSc2ccc(Cl)cc21 | 64 to 65 °C |
| CC(C)(C)OC(=O)C(C)(C)Sc1nnc(N)s1 | 175 to 176 °C |
| Cc1nc2ccccc2c(C(=O)O)c1N | 204 to 205 °C |
| CC12CCC(C(=CCC=C3C(=O)C4(C)CCC3C4(C)C)C1=O)C2(C)C | 265 to 267 °C |
| O=C(O)c1ccc(O)c([N+](=O)[O-])c1 | 230 °C |
| NC(c1ccc(F)cc1)C(N)c1ccc(F)cc1 (configuration not stated) | 100 to 104 °C |
| N#Cc1ccc(C(Cl)C(Cl)c2cccc(C(Cl)C(Cl)c3ccc(C#N)cc3[N+](=O)[O-])c2)c([N+](=O)[O-])c1 (configuration not stated) | 248 °C |
| CCNS(=O)(=O)c1ccc(C)cc1 | 64 °C |
| CC(=O)c1nn(-c2cccc(C)c2C)c(=N)s1 | 170 °C |
| O=C(O)c1cccc(-c2ccsc2)c1 | 177 to 179 °C |
| Cc1c(NC(=O)C(C)N(C)C)c(=O)n(-c2ccccc2)n1C (configuration not stated) | 181 °C |
| Nc1c(Br)cc(F)c(Cl)c1Br | 98 °C |
| O=[N+]([O-])c1ccc(Oc2c(Cl)cc(S(=O)(=O)Cl)cc2Cl)c(Cl)c1 | 159 to 160 °C |
| CC(C)=CCC1C(=O)N(c2ccccc2)N(c2ccccc2)C1=O | 156 °C |
| O=[N+]([O-])c1cccc2cc[nH]c12 | 95 to 98 °C |
| N#CCSc1ccc(Cl)cc1 | 80 °C |
| O=C(O)C1=Cc2cc(Cl)ccc2OC1 | 245 °C |

| Compound | melting point |
| --- | --- |
| O=C(O)c1c(C(F)(F)F)ccnc1F | 92 °C |
| Clc1c(Br)c(Br)c2c(c1Br)Oc1c(Br)c(Br)c(Cl)c(Br)c1O2 | 385 °C |
| C=CCN1C(=O)CSC1=S | 43 to 46 °C |
| C/C(=N\c1ccccc1C)c1c(O)c2ccccc2n(-c2ccccc2)c1=O | 140 °C |
| O=S1(=O)CCN(Cc2ccccc2)CC1 | 85 to 86 °C |
| Clc1ccccc1-c1ccccc1Cl | 61.5 °C |
| CCOC(=O)c1cc2ccccc2o1 | 30.5 °C |
| c1ccc(-c2c(-c3[nH]c4ccccc4c3-c3ccccc3)[nH]c3ccccc23)cc1 | 227 °C |
| CC12CCCC1C1CCC(CCC(=O)O)C(C)(CCC(=O)O)C1CC2 (configuration not stated) | 232 °C |
| NC(=S)Nc1ccccc1Cl | 146 °C |
| CC12CCC3C(CCC4CC(C[N+](=O)[O-])=CCC43C)C1CCC2O (configuration not stated) | 129 °C |
| COc1cccc(C2C(C(=O)OC(C)C)=C(C)NC(C)=C2C(=O)OC(C)C)c1O | 196 °C |
| O=C(O)c1ccc(-c2cncnc2)cc1 | 316 to 317 °C |
| CC1(O)CNC(=O)C1 (configuration not stated) | 140 °C |
| CCCCCCCCCCCCCCC(C)CC (configuration not stated) | -6 °C |
| COC(=O)c1ccncc1 | 12.1 °C |
| c1cc(N2CCNCC2)ccn1 | 142 to 144 °C |
| CC1=CC(=O)CC(=O)O1 | 188 °C |
| COC(=O)C1Cc2ccccc2C(=O)C1C(=O)OC (configuration not stated) | 88 °C |
| Cc1ccc(S(=O)(=O)n2cc(C=CC(=O)O)c3ccccc32)cc1 | 238 to 241 °C |
| Cc1ccccc1NN=C1C(=O)OC(C)(C)OC1=O | 106 °C |
| O=c1c(Cl)c(Cl)cnn1Cc1ccccc1F | 110 to 112 °C |
| Oc1cc(C(F)(F)F)nc2ccc(Cl)cc12 | 280 to 289 °C |
| O=C(O)c1ccc(C(F)(F)F)cc1C(=O)O | 151 °C |
| c1cc2cc3ccc4c(c3nc2c2c1NCOC2)COCN4 | 235 °C |
| CCC(=O)CC#N | 29 °C |

| Compound | melting point |
| --- | --- |
| CC(C)(CC(=O)O)c1ccccc1 | 60 °C |
| CCCCCCCCC(O)CCCCCCCC | 61 °C |
| N#Cc1c(C(F)(F)F)cc(-c2cccs2)n(N)c1=O | 234 °C |
| NNc1nc(N)nc(C23CC4CC(CC(C4)C2)C3)n1 | 265 to 267 °C |
| CC(=O)Nc1ccc(N=Nc2ccc([N+]([O-])=Nc3ccc(NC(C)=O)cc3)cc2)cc1 | 317 °C |
| Cc1ccc(S(=O)c2ccc(C)cc2)cc1 | 95 °C |
| CC(C)N=c1cc2n(-c3ccc(Cl)cc3)c3ccccc3nc-2cc1Nc1ccc(Cl)cc1 | 211 °C |
| CCC1CC(NC(=O)CNC(=O)CBr)C(C)(C)N1O (configuration not stated) | 145 to 147 °C |
| CC(=O)C=C(C)C | -53 °C |
| CSc1sc(Cl)c2c1C(=O)CC(C)(C)C2 | 126 to 129 °C |
| N=C1NC(=O)C(=NNc2cccc([N+](=O)[O-])c2)S1 | 208 °C |
| O=S(=O)(Cl)c1cc(Cl)c(Cl)s1 | 56 °C |
| COc1ccc(C2c3cc(OC)c(OC)cc3CCN2C(C)=O)cc1OC (configuration not stated) | 164 to 165 °C |
| N#Cc1ccc(-c2ccco2)cc1 | 66 to 67 °C |
| O=C(CBr)c1ccc(-c2ccccc2)cc1 | 125 °C |
| Nc1c(CN2CCCCC2)c(=O)oc2ccccc12 | 190 °C |
| FC(F)(F)c1ccc2[nH]ccc2c1 | 69 °C |
| Cc1cc(C)c(S(=O)(=O)n2cnc([N+](=O)[O-])n2)c(C)c1 | 132 to 134 °C |
| COC(=O)c1sc(-c2ccc(C(C)(C)C)cc2)cc1N | 156 to 157 °C |
| COC(=O)CCc1ccc2c(c1)NC(=O)CC2 | 143 °C |
| CC(C=Cc1ccccc1)=NO | 116 to 120 °C |
| Cc1nc2sc3c(c2c(=O)n1NC(=O)c1ccccc1Cl)CCCC3 | 244 to 246 °C |
| CCc1c[nH]c(=O)[nH]c1=O | 309 °C |
| COc1ccc2c(c1)c(CC(=O)O)c(C)n2C(=O)C=Cc1ccccc1 | 170 °C |
| O=C1c2ccccc2CC2c3ccccc3CCN12 (configuration not stated) | 173 °C |
| O=C1c2ccccc2S(=O)(=O)N1Br | 160 to 170 °C |

| Compound | melting point |
| --- | --- |
| CSc1nsc(SC)c1C(=O)Nc1ccc(Cl)cc1 | 168 to 170 °C |
| CC(C)N(C(=O)C(C(F)(F)F)C(F)(F)F)C(C)C | 53 °C |
| Cn1ncc(C(N)=O)c1N | 231 to 232 °C |
| O=C(O)C=Cc1ccc2c(c1)OCO2 | 242 to 244 °C |
| O=C(C(=O)c1ccc2ccccc2c1)c1ccccc1 | 87 °C |
| O=C1OC(c2ccccc2)=NC1=Cc1ccc(Cl)cc1 | 192 to 193 °C |
| CN1CCC23c4c5ccc(O)c4OC2C(=O)CCC3(O)C1C5 (configuration not stated) | 248 °C |
| CCSCC[C@@H](N)C(=O)O | 278 °C |
| O=C(Cl)c1cc(Cl)cc(Cl)c1 | 40 °C |
| O=C(O)c1cc(I)c(O)c(I)c1 | 237 °C |
| Cc1nc2ccccc2[nH]c(=O)c1=NNc1cc(-c2ccccc2)n[nH]1 | 160 °C |
| CC(=O)COc1c([N+](=O)[O-])ccc(F)c1F | 40 to 45 °C |
| O=c1oc2ccccc2cc1O | 154 °C |
| CC(=O)CCc1ccc(CCC(C)NC(=O)c2ccccc2)cc1 (configuration not stated) | 122 °C |
| N#Cc1cccc2ccsc12 | 67.5 to 72.5 °C |
| C#CC1(O)C=CC(O)(C#C)C=C1 (configuration not stated) | 125 °C |
| NCCCNc1ncc(C(F)(F)F)cc1Cl | 60 to 65 °C |
| Cc1ccc(Sc2ccc(C(=O)c3ccccc3)cc2)cc1 | 73 to 87 °C |
| Cc1c(C(C)C)c(=O)n(-c2ccccc2)n1C | 103 °C |
| FC(Cl)C(Cl)(Cl)Cl (configuration not stated) | -95.3 °C |
| Cc1ccc(NN=C2C(=O)NN(c3ccccc3)C2=O)cc1 | 277 °C |
| FC(F)(F)c1cc(CCl)cc(C(F)(F)F)c1 | 31 °C |
| COc1ccccc1C(N)=O | 129 °C |
